# Measurements reported in patent publication US7595329B2, “Benzimidazolone carboxylic acid derivatives” (Pfizer Inc, priority 2004, dated 2009).
row,Compound,melting point
1,CC(C)n1c(=O)n(C(=O)NCC2CCN(CC3(C(=O)O)CC3)CC2)c2ccccc21.Cl,206 °C
2,"CC(C)n1c(=O)n(C(=O)NCC2CCN(CC3(C(=O)O)CCOCC3)CC2)c2ccccc21 [Example 1, 4-{[4-({[(3-isopropyl-2-oxo-2,3-dihydro-1H-benzimidazol-1-yl)carbonyl]amino}methyl)piperidin-1-yl]methyl}tetrahydro-2H-pyran-4-carboxylic acid]",176 °C

# Second part, the compound after the results:
row,melting point,Compound
1,151 °C,"CC(C)n1c(=O)n(C(=O)NCC2CCN(CC3(C(=O)O)CCCCC3)CC2)c2ccccc21 [Example 2, 1-{[4-({[(3-isopropyl-2-oxo-2,3-dihydro-1H-benzimidazol-1-yl)carbonyl]amino}methyl)piperidin-1-yl]methyl}cyclohexanecarboxylic acid]"
2,165 °C,"CC(C)n1c(=O)n(C(=O)NCC2CCN(CC3(C(=O)O)CCCC3)CC2)c2ccccc21 [Example 3, 1-{[4-({[(3-isopropyl-2-oxo-2,3-dihydro-1H-benzimidazol-1-yl)carbonyl]amino}methyl)piperidin-1-yl]methyl}cyclopentanecarboxylic acid]"
3,184 °C,"CC(C)n1c(=O)n(C(=O)NCC2(O)CCN(CC3(C(=O)O)CCCCC3)CC2)c2ccccc21 [Example 6, 1-{[4-hydroxy-4-({[(3-isopropyl-2-oxo-2,3-dihydro-1H-benzimidazol-1-yl)carbonyl]amino}methyl)piperidin-1-yl]methyl}cyclohexanecarboxylic acid]"
